Molecular target: T1, LeuT (leucine transporter) (Aquifex aeolicus, UniProt O67854, R30A/A313H/A317H/K398C)
T1 construct: gene snf; full-length LeuT, C-terminal octahistidine tag with thrombin site, pET16b derivative, expressed in E. coli C41, purified in DDM; tmFRET variants labelled with fluorescein-5-maleimide
Test: scintillation proximity assay, Na+-dependent [3H]leucine binding
Conditions: 5 μM [3H]leucine; pH 7.5; DDM; fluorescein-labelled at K398C; labelled compound

CC(C)C[C@H](N)C(=O)O [leucine]
scintillation proximity assay, Na+-dependent [3H]leucine binding: Na^+ dependence of [^3H]leucine binding to R30A^tmFRET
